This note sets out measurements from ChEMBL document CHEMBL2073841, “ATP-dependent transport of aflatoxin B1 and its glutathione conjugates by the product of the multidrug resistance protein (MRP) gene” (Mol Pharmacol, 1997).

The target in the data set is MRP1 (Multidrug resistance-associated protein 1) (Homo sapiens, UniProt P33527). Description: TP_TRANSPORTER: uptake in membrane vesicle from MRP1-expressing HeLa cells. In kind it is functional, cell membranes. The settings on record: membrane vesicles from MRP1-expressing HeLa cells.
Chain of MRP1 (Multidrug resistance-associated protein 1) (P33527 whole entry): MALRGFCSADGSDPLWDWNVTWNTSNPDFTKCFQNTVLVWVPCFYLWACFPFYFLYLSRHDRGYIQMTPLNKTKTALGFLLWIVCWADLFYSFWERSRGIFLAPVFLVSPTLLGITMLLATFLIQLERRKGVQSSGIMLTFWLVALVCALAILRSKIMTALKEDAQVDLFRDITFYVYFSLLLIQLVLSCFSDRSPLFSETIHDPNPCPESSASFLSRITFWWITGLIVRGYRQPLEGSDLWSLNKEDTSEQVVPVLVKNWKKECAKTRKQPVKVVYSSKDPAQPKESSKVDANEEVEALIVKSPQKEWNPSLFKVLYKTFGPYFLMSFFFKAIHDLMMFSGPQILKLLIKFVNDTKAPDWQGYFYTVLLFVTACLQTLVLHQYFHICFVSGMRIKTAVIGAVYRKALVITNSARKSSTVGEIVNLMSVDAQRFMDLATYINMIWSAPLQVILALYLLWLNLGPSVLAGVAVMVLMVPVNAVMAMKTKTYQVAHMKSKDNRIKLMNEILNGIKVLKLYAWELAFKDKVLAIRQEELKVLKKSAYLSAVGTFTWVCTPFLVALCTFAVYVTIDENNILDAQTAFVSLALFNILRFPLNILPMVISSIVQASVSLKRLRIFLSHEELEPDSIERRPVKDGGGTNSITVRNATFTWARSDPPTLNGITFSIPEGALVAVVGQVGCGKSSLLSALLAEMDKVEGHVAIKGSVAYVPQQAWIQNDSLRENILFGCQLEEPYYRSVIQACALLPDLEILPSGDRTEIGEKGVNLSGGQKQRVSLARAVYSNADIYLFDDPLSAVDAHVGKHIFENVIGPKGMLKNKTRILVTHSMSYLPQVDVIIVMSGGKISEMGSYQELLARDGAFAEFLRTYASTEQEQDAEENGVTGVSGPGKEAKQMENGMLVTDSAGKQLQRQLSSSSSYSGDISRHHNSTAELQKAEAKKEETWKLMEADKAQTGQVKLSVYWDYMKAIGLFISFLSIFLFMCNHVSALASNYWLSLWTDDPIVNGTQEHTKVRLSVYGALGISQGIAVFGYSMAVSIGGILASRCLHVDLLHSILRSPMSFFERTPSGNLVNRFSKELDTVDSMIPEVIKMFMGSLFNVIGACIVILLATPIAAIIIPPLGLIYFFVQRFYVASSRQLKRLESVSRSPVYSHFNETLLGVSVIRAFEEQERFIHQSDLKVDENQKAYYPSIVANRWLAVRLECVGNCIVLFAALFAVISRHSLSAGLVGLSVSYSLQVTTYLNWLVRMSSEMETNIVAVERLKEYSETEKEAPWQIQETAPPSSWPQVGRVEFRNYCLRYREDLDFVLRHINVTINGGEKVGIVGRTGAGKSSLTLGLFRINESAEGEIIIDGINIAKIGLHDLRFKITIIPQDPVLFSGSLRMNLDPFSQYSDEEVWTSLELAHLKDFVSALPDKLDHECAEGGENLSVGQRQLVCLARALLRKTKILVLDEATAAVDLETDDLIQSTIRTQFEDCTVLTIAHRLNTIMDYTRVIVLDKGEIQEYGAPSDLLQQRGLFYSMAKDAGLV

A word on the Km: it is the substrate concentration at which the rate is half of its maximum.

With `COc1cc2c(c3oc(=O)c4c(c13)CCC4=O)[C@H]1[C@@H](O2)O[C@H](SC[C@@H](NC(=O)CC[C@H](N)C(=O)O)C(=O)NCC(=O)O)[C@H]1O`, the Michaelis constant (Km) is 0.189 µM.
